No end group written: not given here.

The target in one test is T1, SIRT1 (Homo sapiens, UniProt Q96EB6).
T1 sequence (Q96EB6 1-747): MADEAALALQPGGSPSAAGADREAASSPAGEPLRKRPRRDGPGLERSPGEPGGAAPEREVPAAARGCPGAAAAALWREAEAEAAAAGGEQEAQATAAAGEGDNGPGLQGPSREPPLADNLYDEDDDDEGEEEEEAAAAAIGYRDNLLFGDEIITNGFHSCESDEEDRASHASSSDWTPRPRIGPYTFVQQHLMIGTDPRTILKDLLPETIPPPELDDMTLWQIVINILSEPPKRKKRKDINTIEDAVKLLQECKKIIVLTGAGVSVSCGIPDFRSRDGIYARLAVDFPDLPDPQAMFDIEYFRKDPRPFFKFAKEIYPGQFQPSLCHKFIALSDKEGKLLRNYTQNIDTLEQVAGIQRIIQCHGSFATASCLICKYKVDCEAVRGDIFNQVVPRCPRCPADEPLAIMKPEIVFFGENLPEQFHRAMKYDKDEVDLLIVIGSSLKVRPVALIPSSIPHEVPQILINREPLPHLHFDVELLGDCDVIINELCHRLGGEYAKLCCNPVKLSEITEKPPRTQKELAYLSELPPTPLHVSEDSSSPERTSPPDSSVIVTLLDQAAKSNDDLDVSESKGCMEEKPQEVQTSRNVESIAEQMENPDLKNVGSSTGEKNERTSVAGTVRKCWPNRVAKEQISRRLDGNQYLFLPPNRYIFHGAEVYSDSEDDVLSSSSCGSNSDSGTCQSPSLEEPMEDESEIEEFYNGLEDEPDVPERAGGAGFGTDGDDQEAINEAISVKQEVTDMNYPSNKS
Kind of test: Fluorescence polarization assay, SIRT1 deacetylation of p53-based peptide substrate. The note with it: activation of SIRT1; compounds 1-18 with peptide 1 (MR121), compounds 19-56 with peptide 2 (5TMR); read-out: ED50 (the source's name). Format: biochemical. Background: Polarisation of emitted light reports the rotation of a fluorescent probe.
Take `O=C(NCCN1CCOCC1)c1cc(-c2cccs2)nc2ccccc12` [Compound 5]: the EC50 is 101 to 150 µM. Still for that read-out and setting: then `FC(F)(F)c1ccnc(NNc2c3ccccc3nc3ccccc23)n1` [Compound 33], with 101 to 150 µM. Still for that read-out and setting: then `O=C(NNc1c2ccccc2nc2ccccc12)c1ccccn1` [Compound 2], with 51 to 100 µM; and `O=C(NCCN1CCOCC1)c1cc(-c2cccs2)nc2ccc(F)cc12` [Compound 7], with 101 to 150 µM. Same read-out and setting: then `Cc1ccc2nc(-c3ccccc3)cc(C(=O)NCCN3CCOCC3)c2c1` [Compound 12], with 51 to 100 µM.

Staying with this test, now noted: inhibition of SIRT1.
The molecule `Cc1ccc2nc(-c3ccco3)cc(C(=O)NCCCCN3CCOCC3)c2c1` [Compound 72] registered an IC50 greater than 150 µM. Still for that read-out and setting: then `COc1ccccc1NC(=O)Nc1c2c(nc3ccccc13)CCCC2` [Compound 77], with greater than 150 µM; and `COc1cc(C(=O)NNC(=O)c2c3ccccc3nc3ccccc23)cc(OC)c1OC` [Compound 75], with less than 50 µM; and `Cc1nc(-c2cccc(NC(=O)c3c4ccccc4nc4ccccc34)c2)cs1` [Compound 76], with greater than 150 µM.

Molecule `Cc1cc(C)nc(Nc2c3ccccc3nc3ccccc23)c1` [Compound 74] gave an IC50 greater than 150 µM.

Take `O=C(Nc1ccccc1)c1c2c(nc3ccccc13)-c1ccccc1CC2` [Compound 79]: the half-maximal inhibitory concentration (IC50) was greater than 150 µM. Still for that read-out and setting: then `COc1cc(NC(=O)Nc2c3c(nc4ccccc24)CCCC3)cc(OC)c1OC` [Compound 78], with 101 to 150 µM; and `O=C(NNc1c2c(nc3ccccc13)CCCC2)c1ccccn1` [Compound 73], with less than 50 µM.

The next test deals with T1, SIRT1.
Experiment: not given
The note with it: Km of NAD with the named peptide substrate; Sirt1, nicotinamide release, Kaeberlein et al.; read-out: NAD Km; cited from earlier work.
As to “p53 (aa 368-386) *FL: p53 (aa 368-386) peptide substrate with fluorescent label, Kaeberlein et al. (HLKSKKGQSTSRHKKLMFK; also: fluorescent label; UniProt P04637 368-386, looked up, fragment)”, the Km is 192 µM. With “p53 (aa 368-386) no FL: p53 (aa 368-386) peptide substrate without fluorescent label, Kaeberlein et al. (HLKSKKGQSTSRHKKLMFK; UniProt P04637 368-386, looked up, fragment)”, the Km is 132 µM.

The test is the same for the next values; noted with them: Km of NAD with the named peptide substrate; Sirt1, nicotinamide release, McDonagh et al.; read-out: NAD Km; cited from earlier work.
For “p53 19 mer (aa 368-386) no FL: p53 19 mer (aa 368-386) peptide substrate without fluorescent label, McDonagh et al. (HLKSKKGQSTSRHKKLMFK; UniProt P04637 368-386, looked up, fragment)”, the Michaelis constant (Km) is 133 µM.

Still in this test, the particulars now being: Sirt1, nicotinamide release, Kaeberlein et al.; read-out: Peptide Km; cited from earlier work.
With “p53 (aa 368-386) *FL: p53 (aa 368-386) peptide substrate with fluorescent label, Kaeberlein et al. (HLKSKKGQSTSRHKKLMFK; also: fluorescent label; UniProt P04637 368-386, looked up, fragment)”, the Km is 87.6 µM. Regarding “p53 (aa 368-386) no FL: p53 (aa 368-386) peptide substrate without fluorescent label, Kaeberlein et al. (HLKSKKGQSTSRHKKLMFK; UniProt P04637 368-386, looked up, fragment)”, the Michaelis constant (Km) is 10.3 µM.

The test is the same for the next values; noted with them: Sirt1, nicotinamide release, McDonagh et al.; read-out: Peptide Km; cited from earlier work.
For “p53 19 mer (aa 368-386) no FL: p53 19 mer (aa 368-386) peptide substrate without fluorescent label, McDonagh et al. (HLKSKKGQSTSRHKKLMFK; UniProt P04637 368-386, looked up, fragment)”, the Km was 10.3 µM.

What is called IC50 is the concentration that inhibits the measured activity by half. High values mean weaker potency, low ones greater potency. A word on the Km: it is the concentration of substrate that gives half-maximal velocity.

The record behind these values is US20080293081A1, “Fluorescence Polarization Assays for Acetyltransferase/Deacetylase Activity” (Sirtris Pharmaceuticals, Inc., priority 2005, published 2008).
